Measurements from the NIST ThermoML archive (doi:10.1016/j.fluid.2004.11.019).

Assay: xn = mol fraction of the nth substance listed
Conditions: 348.15 K, Liquid

CCO [ethanol] + O
mass density [kg/m3]
Conditions | 30000 kPa | 40000 kPa
x1 = 0.003 | – | 990.1
x1 = 0.0042 | – | 988.8
x1 = 0.0082 | – | 987.6
x1 = 0.0119 | – | 986
x1 = 0.0158 | – | 983.5
x1 = 0.0184 | – | 982.1
x1 = 0.0219 | 976.7 | 980.8
x1 = 0.0255 | 975 | 979
x1 = 0.0279 | 973.3 | 977.3
x1 = 0.0315 | 972.3 | 976.3
x1 = 0.0366 | 969.5 | 973.6
x1 = 0.0392 | 968.1 | 972.1
x1 = 0.0439 | 966.3 | 970.4
x1 = 0.0483 | 964.1 | 968.2
x1 = 0.0516 | 963.2 | 967.3
x1 = 0.0559 | 961.7 | 965.9
x1 = 0.06 | 960 | 964.1
x1 = 0.0652 | 957.8 | 961.9
x1 = 0.0679 | 956.8 | 960.9
x1 = 0.0722 | 954.7 | 958.9
x1 = 0.0801 | 951.3 | 955.6
x1 = 0.084 | 950.7 | 954.9
x1 = 0.0879 | 948.8 | 953
x1 = 0.0926 | 947 | 951.3
x1 = 0.0958 | 945.7 | 950
x1 = 0.1006 | 943.9 | 948.1
x1 = 0.1111 | 939.8 | 944.2
x1 = 0.1225 | 935.6 | 940
x1 = 0.1296 | 932.9 | 937.4
x1 = 0.1402 | 929.1 | 933.7
x1 = 0.151 | 925.1 | 929.7
x1 = 0.1601 | 922 | 926.6
x1 = 0.1703 | 918.4 | 923.1
x1 = 0.18 | 915 | 919.8
x1 = 0.1903 | 911.6 | 916.4
x1 = 0.1996 | 908.5 | 913.4
x1 = 0.2269 | 899.7 | 904.8
x1 = 0.2502 | 892.8 | 898.1
x1 = 0.2745 | 885.8 | 891.1
x1 = 0.3009 | 878.6 | 884.2
x1 = 0.35 | 866.2 | 872
x1 = 0.4034 | 854 | 860
x1 = 0.4501 | 844.2 | 850.5
x1 = 0.498 | 835.1 | 841.6
x1 = 0.5501 | 825.9 | 832.7
x1 = 0.5998 | 818 | 824.9
x1 = 0.6489 | 810.6 | 817.8
x1 = 0.6967 | 804 | 811.3
x1 = 0.7475 | 797.6 | 805.1
x1 = 0.7996 | 791.3 | 799
x1 = 0.8484 | 785.8 | 793.6
x1 = 0.8993 | 780.3 | 788.3
x1 = 0.9503 | 775.2 | 783.4
x1 = 1 | 770.3 | 778.6
